{
  "source": "patent US20230165841A1",
  "about": "“PREVENTION AND INTERVENTION OF INFARCT EXPANSION FOLLOWING HEMORRHAGIC INFARCTIONS” (CEDARS-SINAI MEDICAL CENTER, priority 2020, published 2023)",
  "molecules": {"B1": {"name": "hemopexin (protein, UniProt P02790 24-462, looked up)", "Hemopexin": "TPLPPTSAHGNVAEGETKPDPDVTERCSDGWSFDATTLDDNGTMLFFKGEFVWKSHKWDRELISERWKNFPSPVDAAFRQGHNSVFLIKGDKVWVYPPEKKEKGYPKLLQDEFPGIPSPLDAAVECHRGECQAEGVLFFQGDREWFWDLATGTMKERSWPAVGNCSSALRWLGRYYCFQGNQFLRFDPVRGEVPPRYPRDVRDYFMPCPGRGHGHRNGTGHGNSTHHGPEYMRCSPHLVLSALTSDNHGATYAFSGTHYWRLDTSRDGWHSWPIAHQWPQGPSAVDAAFSWEEKLYLVQGTQVYVFLTKGGYTLVSGYPKRLEKEVGTPHGIILDSVDAAFICPGSSRLHIMAGRRLWWLDLKSGAQATWTELPWPHEKVDGALCMEKSLGPNSCSANGPGLYLIHGPNLYCYSDVEKLNAAKALPQPQNVTSLLGCTH", "notes": "a known scavenger of heme"}},
  "key": {"mice with reperfused MI": {"system": "mice with reperfused MI", "conditions": "pre-treating prior to ischemia; cited from earlier work"}, "[1]": {"conditions": "cited from earlier work"}, "cardiomyocyte culture": {"system": "cardiomyocyte culture", "assay": "Total ROS in cardiomyocyte culture treated with Hx, DFP, hemin", "format": "cell-based", "conditions": "compared to controls; FIG. 16 axis μM/mg protein/min", "excerpt": "FIG. 16 is a bar graph depicting the total ROS production (μM/mg protein/min) in cardiomyocyte culture treated with different agents or control, indicating the importance of physiochemical state of degradation products of hemorrhage being the therapeutic targets.\nPhysiochemical features of degradation products of hemorrhage are important for determining optimal therapy. An early byproduct of hemorrhage is extracellular heme (an Fe^2+ complex), which is eventually internalized by cardiomyocytes. Applicant tested whether pretreating cardiomyocytes in culture with hemopexin (Hx), a heme scavenger, can rescue the cells from oxidative stress compared to an intracellular Fe^3+ chelator deferiprone (DFP). Methods: Studies were performed in an cardiomyocyte culture. Total ROS following treatment with Hx, DFP, hemin, hemin+Hx, hemin+DFP were measured. […] Summary: Location of hemorrhagic byproducts (intra- vs. extra-cellular) and oxidation state are critical features that need to be accounted for in the development of therapies against hMI. To develop an optimal ICT strategy against hMI we will identify the physiochemical features of hemorrhagic byproducts in rats with hMI sacrificed at different time points."}, "[2]": {"system": "dogs with reperfused hemorrhagic MI", "assay": "Deferiprone interventional arm in canine model of hemorrhagic MI (serial CMR)", "format": "in vivo, dog"}, "[3]": {"system": "rats subjected to hMIs (90-min I/R)", "conditions": "for LVEF: echocardiography, EDTA 40 mg/kg/day oral gavage upon reperfusion, followed 4 weeks, PBS 30±4%; for Adverse LV remodeling / cardioprotection: rats with hMI, post reperfusion treatment"}, "post MI patients": {"system": "post MI patients", "conditions": "6 months of EDTA therapy starting 6-weeks post MI; cited from earlier work"}, "[4]": {"system": "rats with 90-min I/R (hMI)", "assay": "Hemopexin treatment of rats with 90-min I/R (hMI)", "format": "in vivo, rat", "excerpt": "FIGS. 12A and 12B depict the therapeutic benefits of hemopexin (Hx). […] Note the ventricular dilation in rats treated with PBS (not evident Hx treated rates). Long- and shor-axis (along dotted lines) views are shown.\nBackground: Hemopexin (Hx), a known scavenger of heme, and a key byproduct of hemorrhage. Applicant tested whether treating rats with 90-min I/R (known to yield hMI) with Hx could reduce oxidative stress in the acute phase and improve LV remodeling in the chronic phase. Methods: Rats (n=12) underwent 90-min I/R: 50% of the animals were treated with Hx (700 μg, i.p. immediately and 2 days post reperfusion) and the rest were treated with PBS. LV function was determined with echo. Half of each group was sacrificed at 24-hrs and the rest were sacrificed at 1-month post MI. […] LVEF were: 51±4% (Hx+) vs 32±5% (control), p<0.05. Summary: Heme-specific scavenger, Hx, can attenuate the adverse effects of hMI."}, "[5]": {"conditions": "DFP 100 mg/kg/day oral gavage from 3 days post reperfusion"}, "[6]": {"conditions": "vs EDTA-treated or placebo controls"}},
  "note": "Entries after “also recorded” stand apart in the source; their conditions may differ.",
  "data": [
    {"molecule": "c1ccc(-c2ccccn2)nc1", "note": "[BPD, 2,2-bipyridl]", "values": [
      {"measurement": "Mitochondrial iron and reperfusion injury", "setting": "mice with reperfused MI", "result": "could reduce"}
    ]},
    {"molecule": "CC(=O)N(O)CCCCCNC(=O)CCC(=O)N(O)CCCCCNC(=O)CCC(=O)N(O)CCCCCN", "note": "[DFO, deferoxamine]", "values": [
      {"measurement": "Lipid solubility (note in Location column)", "setting": "[1]", "result": "(lipid insoluble)"}
    ]},
    {"molecule": "Cc1c(O)c(=O)ccn1C", "note": "[DFP, Deferiprone]", "values": [
      {"measurement": "Total ROS, agent alone", "setting": "cardiomyocyte culture", "result": "did not increase"},
      {"measurement": "Relative PDFF in the MI zones, change between D3 and Wk8", "setting": "[2]; DFP+/IMH+ group", "result": "did not show an increase"},
      {"measurement": "LVEF", "setting": "[2]; DFP+/IMH+ group by M6, p<0.03", "result": "over 40%"},
      {"measurement": "Remote wall thickness, change over the 6-month period", "setting": "[2]; DFP+/IMH+ group, diastolic", "result": "decreased"},
      {"measurement": "Magnitude of peak circumferential strain (Peak εc) vs DFP−/IMH+ group", "setting": "[2]; Wk8 to M6 and D3 to M6, p<0.05", "result": "significant greater"},
      {"measurement": "Fat infiltration within the MI zones vs DFP−/IMH+ group", "setting": "[2]; at M6", "result": "significantly lower"},
      {"measurement": "Infarct wall thickness, treated group compared to untreated group", "setting": "[2]; at M6, p<0.05", "result": "+34%"},
      {"measurement": "Infarct-to-remote wall thickness (I:RWT), DFP+/IMH+ vs DFP−/IMH+", "setting": "[2]; at M6, p<0.05", "result": "+67%"},
      {"measurement": "Remote wall thickness, DFP−/IMH+ group compared to DFP+/IMH+ group", "setting": "[2]; at M6, untreated larger, p<0.05", "result": "+28%"},
      {"measurement": "LVEF, DFP+/IMH+ group vs DFP−/IMH+ group", "setting": "[2]; at Month 6, p<0.005", "result": "+36%"},
      {"measurement": "Fat content based on PDFF (normalized to D3) vs untreated group", "setting": "[2]; at Wk8 and M6", "result": "marked reduction"},
      {"measurement": "End-systolic volume (ESV) vs DFP−/IMH+ group", "setting": "[2]; at both Wk8 and Mo6, p<0.05", "result": "lower"},
      {"measurement": "Fat content within MI zone vs untreated control group", "setting": "[2]; at the end of the treatment period (Wk8)", "result": "decreased precipitously"},
      {"measurement": "Safety of delayed treatment", "setting": "[3]; [5]", "result": "safe"},
      {"measurement": "Iron and proinflammatory markers in the scarred myocardium", "setting": "[3]; IL-1β, TNF-α, MMP9, vs EDTA-treated or placebo controls", "result": "reduced"},
      {"measurement": "Iron in MI zones", "setting": "[3]; T2*-CMR / Prussian Blue, vs EDTA-treated or placebo controls", "result": "little to no iron; also recorded: much lower"},
      {"measurement": "LVEF", "setting": "[3]; [5]", "result": "42±4", "unit": "%"},
      {"measurement": "Adverse LV remodeling / cardioprotection", "setting": "[3]", "result": "marked reduction"},
      {"measurement": "LV dilatation", "setting": "[3]; [6]", "result": "reduced"},
      {"measurement": "Wall thickness (infarcted and remote)", "setting": "[3]; [6]", "result": "thicker"}
    ]},
    {"molecule": "O=C(O)CN(CCN(CC(=O)O)CC(=O)O)CC(=O)O", "note": "[EDTA, ethylenediaminetetraacetic acid]", "values": [
      {"measurement": "LVEF", "setting": "[3]; [5]", "result": "32±3", "unit": "%"},
      {"measurement": "Adverse LV remodeling / cardioprotection", "setting": "[3]", "result": "did not decrease; also recorded: does not provide cardioprotection"},
      {"measurement": "MACE", "setting": "post MI patients", "result": "did not decrease"},
      {"measurement": "Stability of ferric-EDTA complex", "setting": "[1]; can be transformed to ferrous-EDTA in vivo", "result": "unstable"}
    ]},
    {"molecule": "hemin", "values": [
      {"measurement": "Total ROS, agent alone", "setting": "cardiomyocyte culture", "result": "markedly increased"}
    ]},
    {"molecule": "B1", "values": [
      {"measurement": "Total ROS, agent alone", "setting": "cardiomyocyte culture", "result": "did not increase"},
      {"measurement": "LV remodeling", "setting": "[4]; 1-month post reperfusion, vs PBS-treated group", "result": "better"},
      {"measurement": "Total ROS (production within MI)", "setting": "[4]; 24 hrs post reperfusion, Hx 700 μg i.p. immediately and 2 days post reperfusion, vs PBS control", "result": "significantly lower"},
      {"measurement": "LVEF", "setting": "[4]; echo, Hx 700 μg i.p. immediately and 2 days post reperfusion, control 32±5%, p<0.05", "result": "51±4", "unit": "%"}
    ]}
  ]
}
